In patent publication US20250026754A1, “SMALL MOLECULE INHIBITORS OF UBIQUITIN SPECIFIC PROTEASE 1 (USP1) AND USES THEREOF” (INSILICO MEDICINE IP LIMITED, priority 2021, published 2025):

Tested on: MDA-MB-436 cells
Assay: MDA-MB-436 breast cancer cell proliferation assay (CellTiter-Glo)
Type: cell-based
Conditions: Homo sapiens, 168 h, 7 days
Protocol: MDA-MB-436 cells were grown in Leibovitz's L-15 medium with 10 μg/ml insulin, 16 μg/ml glutathione, 10% FBS. Cells were passaged at subconfluence after trypsinization and maintained in incubators at 37° C. in a humidified atmosphere with 5% CO2.
Cell proliferation was determined using CellTiter-Glo® Luminescent Cell Viability Assay (Promega, #G7573). MDA-MB-436 cells were seeded in 384-well plates and allowed to attach for 24 h. Compounds were added into 384-well plate by ECHO, and incubated at 37 C° in a humidified atmosphere with 5% CO2. After 7 days, CellTiter-Glo was added into 384 well plates, contents were mixed on an orbital shaker at […] for 2 min before centrifuging the plate for 2 min at 1000 rpm. After incubation at RT for 30 min, luminescence was read on envision.

COc1ncnc(C2CC2)c1-c1nn(C)c2c1CN(c1ccc(-n3nc(C(F)(F)F)cc3C)cn1)CC2 [Example 15, 3-(4-cyclopropyl-6-methoxypyrimidin-5-yl)-1-methyl-5-(5-(5-methyl-3-(trifluoromethyl)-1H-pyrazol-1-yl)pyridin-2-yl)-4,5,6,7-tetrahydro-1H-pyrazolo[4,3-c]pyridine]
IC50: 50 to 1000 nM
